Source: ChEMBL document CHEMBL1201862, “PubChem BioAssay data set” (2004)
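Values below derive from 48-hour exposures of cells grown in 96-well plates, with endpoints linearly interpolated between the two concentrations bracketing the appropriate inhibition level. At the GI50, growth is halved.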 Calls of active or inactive are those of the source. Cut-off read from the data, not from the text of the source: active = GI50 up to about 1.1 µM and inactive = higher.

Experiments:
Assay in all cases: DTP human tumour cell line panel, 48 h
[1] = test system: 786-0
[2] = test system: A549
[3] = test system: ACHN
[4] = test system: BT-549
[5] = test system: CAKI-1
[6] = test system: CCRF-CEM
[7] = test system: COLO 205
[8] = test system: DU-145
[9] = test system: EKVX
[10] = test system: HCC 2998
[11] = test system: HCT-116
[12] = test system: HCT-15
[13] = test system: HL-60
[14] = test system: HOP-62
[15] = test system: HT-29
[16] = test system: Hs-578T
[17] = test system: IGROV-1
[18] = test system: K562
[19] = test system: KM12
[20] = test system: LOX IMVI
[21] = test system: M14
[22] = test system: MCF7
[23] = test system: MDA-MB-231
[24] = test system: MDA-MB-435
[25] = test system: MDA-N
[26] = test system: MOLT-4
[27] = test system: Malme-3M
[28] = test system: NCI-H226
[29] = test system: NCI-H23
[30] = test system: NCI-H522
[31] = test system: NCI/ADR-RES
[32] = test system: OVCAR-3
[33] = test system: OVCAR-4
[34] = test system: OVCAR-5
[35] = test system: OVCAR-8
[36] = test system: PC-3
[37] = test system: RPMI-8226
[38] = test system: RXF 393
[39] = test system: SF-268
[40] = test system: SF-295
[41] = test system: SF-539
[42] = test system: SK-MEL-28
[43] = test system: SK-MEL-2
[44] = test system: SK-MEL-5
[45] = test system: SK-OV-3
[46] = test system: SN12C
[47] = test system: SNB-19
[48] = test system: SNB-75
[49] = test system: SW-620
[50] = test system: T47D
[51] = test system: TK-10
[52] = test system: U-251
[53] = test system: UACC-257
[54] = test system: UACC-62
[55] = test system: UO-31
[56] = test system: A498
[57] = test system: HOP-92
[58] = test system: NCI-H460
[59] = test system: SR

Measured: GI50

CC(C)[C@@H]1NC(=O)[C@H]2N=C(O[C@@H]2C)[C@@H]2CCCN2C(=O)[C@H](Cc2ccccc2)NC(=O)[C@@H]2CSC(=N2)[C@@H](Cc2ccccc2)NC(=O)[C@@H]2CSC1=N2
33.2 µM: [12]
active: [48] 0.216 µM
inactive: [1] > 50 µM | [2] 18.7 µM | [3] > 50 µM | [4] > 50 µM | [5] > 50 µM | [6] 16.3 µM | [7] 24.7 µM | [8] > 50 µM | [9] > 50 µM | [10] 21.9 µM | [11] > 50 µM | [13] 7.46 µM | [14] > 50 µM | [15] 38.8 µM | [16] 32.8 µM | [17] > 50 µM | [18] 9.38 µM | [19] 25.6 µM | [20] 23.7 µM | [21] > 50 µM | [22] 18.9 µM | [23] > 50 µM | [24] 36.4 µM | [25] > 50 µM | [26] 26.8 µM | [27] > 50 µM | [28] 38.5 µM | [29] > 50 µM | [30] 29.1 µM | [31] > 50 µM | [32] 47 µM | [33] 19.8 µM | [34] > 50 µM | [35] > 50 µM | [36] 21.8 µM | [37] 9.29 µM | [38] 39 µM | [39] > 50 µM | [40] 34.6 µM | [41] 17.5 µM | [42] > 50 µM | [43] > 50 µM | [44] > 50 µM | [45] > 50 µM | [46] > 50 µM | [47] > 50 µM | [49] > 50 µM | [50] > 50 µM | [51] > 50 µM | [52] > 50 µM | [53] > 50 µM | [54] > 50 µM | [55] > 50 µM

O=C(O)c1ccc(Nc2nc3ccccc3nc2-c2cccs2)cc1
inactive: [1] 71.9 µM | [56] 47 µM | [2] 44.2 µM | [3] 98.9 µM | [4] 32.1 µM | [5] 63.5 µM | [6] > 100 µM | [7] > 100 µM | [8] > 100 µM | [9] 92.5 µM | [10] > 100 µM | [11] 94 µM | [13] > 100 µM | [14] > 100 µM | [57] 68.2 µM | [15] 66.4 µM | [16] 50.7 µM | [17] 73.5 µM | [18] 45.5 µM | [19] 64.1 µM | [20] 35.1 µM | [23] > 100 µM | [24] > 100 µM | [25] > 100 µM | [26] > 100 µM | [27] 60.3 µM | [28] > 100 µM | [29] > 100 µM | [58] 71 µM | [30] 91.4 µM | [31] 39.1 µM | [32] > 100 µM | [33] 41.8 µM | [34] > 100 µM | [35] 54.2 µM | [36] > 100 µM | [37] 68.1 µM | [38] 39.4 µM | [39] 82.2 µM | [40] > 100 µM | [41] > 100 µM | [42] > 100 µM | [44] > 100 µM | [45] > 100 µM | [46] > 100 µM | [48] 66.1 µM | [59] 65.9 µM | [49] > 100 µM | [50] 47 µM | [51] > 100 µM | [52] 95.9 µM | [53] > 100 µM | [54] 65.5 µM | [55] 63.5 µM
68.7 µM: [12]

Cc1nn(-c2ccccc2)c2nc(S)cnc12
inactive: [1] > 100 µM | [56] > 100 µM | [2] > 100 µM | [4] > 100 µM | [5] > 100 µM | [6] > 100 µM | [8] > 100 µM | [9] > 100 µM | [11] > 100 µM | [13] > 100 µM | [14] > 100 µM | [57] > 100 µM | [15] > 100 µM | [16] > 100 µM | [17] > 100 µM | [18] > 100 µM | [20] > 100 µM | [21] > 100 µM | [22] > 100 µM | [24] > 100 µM | [25] > 100 µM | [26] > 100 µM | [27] > 100 µM | [28] > 100 µM | [29] > 100 µM | [58] > 100 µM | [30] > 100 µM | [31] > 100 µM | [32] > 100 µM | [33] > 100 µM | [34] > 100 µM | [35] > 100 µM | [36] > 100 µM | [37] 89.5 µM | [38] > 100 µM | [39] > 100 µM | [40] > 100 µM | [41] > 100 µM | [42] > 100 µM | [43] > 100 µM | [45] > 100 µM | [46] > 100 µM | [47] > 100 µM | [59] > 100 µM | [49] > 100 µM | [50] > 100 µM | [51] > 100 µM | [52] > 100 µM | [53] > 100 µM | [54] > 100 µM | [55] > 100 µM
